Data reported in patent publication US6936585B2, “Corticotropin releasing factor 2 receptor agonists” (priority 2002, dated 2005).
Ends that are not written are not given here. Peptide text beside a SMILES is read from it.

How the values were obtained:
[1] = target: T1, CRF1R (Homo sapiens, UniProt P34998); experiment: CRF1R agonist activation (EC50 / Emax), called comparative CRF binding; format: cell-based; conditions: for Emax: read-out: CRF1R Emax
T1 sequence (P34998 24-415): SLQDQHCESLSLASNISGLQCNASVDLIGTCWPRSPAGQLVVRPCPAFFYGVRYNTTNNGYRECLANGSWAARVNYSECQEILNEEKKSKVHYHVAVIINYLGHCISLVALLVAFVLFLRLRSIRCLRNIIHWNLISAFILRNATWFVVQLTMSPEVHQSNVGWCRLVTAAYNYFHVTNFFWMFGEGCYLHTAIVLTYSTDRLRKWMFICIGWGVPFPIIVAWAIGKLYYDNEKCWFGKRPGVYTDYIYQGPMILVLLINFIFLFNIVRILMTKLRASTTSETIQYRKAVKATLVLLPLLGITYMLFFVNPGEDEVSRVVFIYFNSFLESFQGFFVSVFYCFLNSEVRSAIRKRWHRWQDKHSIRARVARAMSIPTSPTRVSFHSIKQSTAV
How it was run: (§1)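 CRFR-expressing cells + peptide vs vehicle; read-out cAMP (lysate assay) or CRE-linked reporter expression (luciferase, CAT, fluorescent protein, alkaline phosphatase, etc.). Signal compared against vehicle-treated cells.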

[2] = target: T2, CRF2R (Homo sapiens, UniProt Q13324); experiment: CRF2R agonist activation (EC50 / Emax), called comparative CRF binding; format: cell-based; conditions: for Emax: read-out: CRF2R Emax
T2 sequence (Q13324 1-411): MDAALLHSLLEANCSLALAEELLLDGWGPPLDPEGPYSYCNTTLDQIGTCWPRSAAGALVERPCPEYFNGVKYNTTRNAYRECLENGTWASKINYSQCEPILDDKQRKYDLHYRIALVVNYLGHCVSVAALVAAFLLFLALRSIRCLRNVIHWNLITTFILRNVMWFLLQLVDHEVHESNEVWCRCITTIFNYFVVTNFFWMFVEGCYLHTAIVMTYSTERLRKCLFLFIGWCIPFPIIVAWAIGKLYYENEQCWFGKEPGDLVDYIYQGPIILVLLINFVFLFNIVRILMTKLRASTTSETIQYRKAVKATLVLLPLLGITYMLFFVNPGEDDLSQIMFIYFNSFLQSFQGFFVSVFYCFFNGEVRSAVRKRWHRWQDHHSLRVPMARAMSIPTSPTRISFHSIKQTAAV
How it was run: as §1

Compound	Emax [1]	Emax [2]	EC50 ([1]; CRF1R EC50)	EC50 [2]
CC[C@H](C)[C@H](NC(=O)[C@H](C)NC(=O)[C@H](CC(N)=O)NC(=O)[C@H](CCC(N)=O)NC(=O)[C@H](CCC(=O)O)NC(=O)[C@H](C)NC(=O)[C@H](CCCNC(=N)N)NC(=O)[C@H](CCC(=O)O)NC(=O)[C@H](CCCNC(=N)N)NC(=O)[C@H](CCC(N)=O)NC(=O)[C@H](CO)NC(=O)[C@H](CCC(N)=O)NC(=O)[C@@H](NC(=O)[C@H](CCCNC(=N)N)NC(=O)[C@H](C)NC(=O)[C@H](CC(C)C)NC(=O)[C@H](CCC(=O)O)NC(=O)[C@H](CC(C)C)NC(=O)[C@H](CC(C)C)NC(=O)[C@@H](NC(=O)[C@H](CCCNC(=N)N)NC(=O)[C@H](CC(C)C)NC(=O)[C@H](CC(C)C)NC(=O)[C@H](CC(C)C)NC(=O)[C@H](CC(C)C)NC(=O)[C@@H]1CCCN1C(=O)[C@H](CC(C)C)NC(=O)[C@H](CC(=O)O)NC(=O)[C@@H](NC(=O)[C@H](CO)NC(=O)[C@H](CC(C)C)NC(=O)[C@H](CO)NC(=O)[C@@H]1CCCN1C(=O)[C@H](CC(N)=O)NC(=O)[C@@H](N)CC(=O)O)[C@@H](C)CC)[C@@H](C)O)[C@@H](C)O)C(=O)N[C@H](C(=O)N[C@@H](Cc1ccccc1)C(=O)N[C@@H](C)C(=O)N[C@@H](CO)C(=O)N[C@H](C(N)=O)C(C)C)[C@@H](C)CC [compound 174] (H-DNPSLSIDLPLLLLRTLLELARTQSQRERAEQNAIIFASV-NH2; N-terminus assumed)	29.1%	97.2%	–	–
NDDPPISIDLPTYLLRNMIEMARIENEREQAGLNAKYLAEV-NH2 [compound 266]	4.45%	19.4%	–	–
NDDPPISIDLPLHLLRNMIEMARIENEREQAGLNAKYLAEV-NH2 [compound 259]	83.6%	65%	–	–
SQEPPISLDLPFGLLREVLEMTKADQLAQQAHSNRKLLDIA-NH2 [compound 103]	5.75%	4.85%	–	–
CC[C@H](C)[C@H](N)C(=O)N[C@H](C(=O)N[C@@H](CC(C)C)C(=O)N[C@@H](CO)C(=O)N[C@@H](CC(C)C)C(=O)N[C@@H](CC(=O)O)C(=O)N[C@H](C(=O)N1CCC[C@H]1C(=O)N[C@H](C(=O)NCC(=O)N[C@@H](CC(C)C)C(=O)N[C@@H](CC(C)C)C(=O)N[C@@H](CCC(N)=O)C(=O)N[C@H](C(=O)N[C@@H](CC(C)C)C(=O)N[C@@H](CC(C)C)C(=O)N[C@@H](CCC(=O)O)C(=O)N[C@@H](CCC(N)=O)C(=O)N[C@@H](CCC(=O)O)C(=O)N[C@@H](CCCCN)C(=O)N[C@@H](CCC(N)=O)C(=O)N[C@@H](CCC(=O)O)C(=O)N[C@@H](C)C(=O)N[C@@H](C)C(=O)N[C@@H](CCCNC(=N)N)C(=O)N[C@@H](CCC(=O)O)C(=O)N[C@@H](CCC(N)=O)C(=O)N[C@@H](C)C(=O)N[C@H](C(=O)N[C@H](C(=O)N[C@@H](CC(N)=O)C(=O)N[C@@H](C)C(=O)N[C@@H](CCCNC(=N)N)C(=O)N[C@H](C(=O)N[C@@H](CC(C)C)C(=O)N[C@@H](C)C(=O)N[C@@H](CCCNC(=N)N)C(=O)N[C@H](C(N)=O)C(C)C)[C@@H](C)CC)[C@@H](C)O)[C@@H](C)O)[C@@H](C)CC)[C@@H](C)CC)C(C)C)C(C)C [compound 125] (H-IVLSLDVPIGLLQILLEQEKQEAAREQATTNARILARV-NH2; N-terminus assumed)	9%	99%	–	–
CC[C@H](C)[C@H](NC(=O)[C@H](CCCNC(=N)N)NC(=O)[C@H](C)NC(=O)[C@H](CC(N)=O)NC(=O)[C@H](CCC(N)=O)NC(=O)[C@H](CCC(=O)O)NC(=O)[C@H](C)NC(=O)[C@H](CCCNC(=N)N)NC(=O)[C@H](CCC(=O)O)NC(=O)[C@H](CCCNC(=N)N)NC(=O)[C@H](CCC(N)=O)NC(=O)[C@H](CO)NC(=O)[C@H](CCC(N)=O)NC(=O)[C@@H](NC(=O)[C@H](CCCNC(=N)N)NC(=O)[C@H](C)NC(=O)[C@H](CC(C)C)NC(=O)[C@H](CCC(=O)O)NC(=O)[C@H](CC(C)C)NC(=O)[C@H](CC(C)C)NC(=O)[C@@H](NC(=O)[C@H](CCCNC(=N)N)NC(=O)[C@H](CC(C)C)NC(=O)[C@H](CC(C)C)NC(=O)[C@H](CC(C)C)NC(=O)[C@H](CC(C)C)NC(=O)[C@@H]1CCCN1C(=O)[C@H](CC(C)C)NC(=O)[C@H](CC(=O)O)NC(=O)[C@@H](NC(=O)[C@H](CO)NC(=O)[C@H](CC(C)C)NC(=O)[C@H](CO)NC(=O)[C@@H]1CCCN1C(=O)[C@H](CC(N)=O)NC(=O)[C@@H](N)CC(=O)O)[C@@H](C)CC)[C@@H](C)O)[C@@H](C)O)C(=O)N[C@@H](Cc1ccccc1)C(=O)N[C@@H](C)C(=O)N[C@@H](CCCNC(=N)N)C(=O)N[C@H](C(N)=O)C(C)C [compound 340] (H-DNPSLSIDLPLLLLRTLLELARTQSQRERAEQNARIFARV-NH2; N-terminus assumed)	96%	100%	–	–
CC[C@H](C)[C@H](N)C(=O)N[C@H](C(=O)N[C@@H](CC(C)C)C(=O)N[C@@H](CO)C(=O)N[C@@H](CC(C)C)C(=O)N[C@@H](CC(=O)O)C(=O)N[C@H](C(=O)N1CCC[C@H]1C(=O)NCC(=O)N1CCC[C@H]1C(=O)N[C@@H](CC(C)C)C(=O)N[C@@H](CC(C)C)C(=O)N[C@@H](CCC(N)=O)C(=O)N[C@H](C(=O)N[C@@H](CC(C)C)C(=O)N[C@@H](CC(C)C)C(=O)N[C@@H](CCC(=O)O)C(=O)N[C@@H](CCC(N)=O)C(=O)N[C@H](C(=O)N[C@@H](CCCCN)C(=O)N[C@@H](CCC(N)=O)C(=O)N[C@@H](CCC(=O)O)C(=O)N[C@@H](C)C(=O)N[C@@H](C)C(=O)N[C@@H](CCCNC(=N)N)C(=O)N[C@@H](CCC(=O)O)C(=O)N[C@@H](CCC(N)=O)C(=O)N[C@@H](C)C(=O)N[C@H](C(=O)N[C@H](C(=O)N[C@@H](CC(N)=O)C(=O)N[C@@H](C)C(=O)N[C@@H](CCCNC(=N)N)C(=O)N[C@H](C(=O)N[C@@H](CC(C)C)C(=O)N[C@@H](C)C(=O)N[C@@H](CCCNC(=N)N)C(=O)N[C@H](C(N)=O)C(C)C)[C@@H](C)CC)[C@@H](C)O)[C@@H](C)O)[C@@H](C)O)[C@@H](C)CC)C(C)C)C(C)C [compound 5] (H-IVLSLDVPGPLLQILLEQTKQEAAREQATTNARILARV-NH2)	9%	12%	–	–
CC[C@H](C)[C@H](NC(=O)[C@H](C)NC(=O)[C@H](CC(N)=O)NC(=O)[C@H](CCC(N)=O)NC(=O)[C@H](CCC(=O)O)NC(=O)[C@H](C)NC(=O)[C@H](CCCNC(=N)N)NC(=O)[C@H](CCC(=O)O)NC(=O)[C@H](CCCNC(=N)N)NC(=O)[C@H](CCC(N)=O)NC(=O)[C@H](CO)NC(=O)[C@H](CCC(N)=O)NC(=O)[C@@H](NC(=O)[C@H](CCCNC(=N)N)NC(=O)[C@H](C)NC(=O)[C@H](CC(C)C)NC(=O)[C@H](CCC(=O)O)NC(=O)[C@H](CC(C)C)NC(=O)[C@H](CC(C)C)NC(=O)[C@@H](NC(=O)[C@H](CCCNC(=N)N)NC(=O)[C@H](CC(C)C)NC(=O)[C@H](CC(C)C)NC(=O)[C@H](Cc1ccc(O)cc1)NC(=O)[C@H](Cc1ccccc1)NC(=O)[C@@H]1CCCN1C(=O)[C@H](CC(C)C)NC(=O)[C@H](CC(=O)O)NC(=O)[C@@H](NC(=O)[C@H](CO)NC(=O)[C@H](CC(C)C)NC(=O)[C@H](CO)NC(=O)[C@@H]1CCCN1C(=O)[C@H](CC(N)=O)NC(=O)[C@@H](N)CC(=O)O)[C@@H](C)CC)[C@@H](C)O)[C@@H](C)O)C(=O)N[C@H](C(=O)N[C@@H](Cc1ccccc1)C(=O)N[C@@H](C)C(=O)N[C@@H](CO)C(=O)N[C@H](C(N)=O)C(C)C)[C@@H](C)CC [compound 183] (H-DNPSLSIDLPFYLLRTLLELARTQSQRERAEQNAIIFASV-NH2; N-terminus assumed)	57.5%	100%	–	–
CC[C@H](C)[C@H](NC(=O)[C@H](CO)NC(=O)[C@H](CC(C)C)NC(=O)[C@H](CO)NC(=O)[C@@H]1CCCN1C(=O)[C@H](CC(N)=O)NC(=O)[C@@H](N)CC(=O)O)C(=O)N[C@@H](CC(=O)O)C(=O)N[C@@H](CC(C)C)C(=O)N[C@H](C(=O)N[C@@H](Cc1ccccc1)C(=O)N[C@@H](Cc1cnc[nH]1)C(=O)N[C@@H](CC(C)C)C(=O)N[C@@H](CC(C)C)C(=O)N[C@@H](CCCNC(=N)N)C(=O)N[C@H](C(=O)N[C@@H](CC(C)C)C(=O)N[C@@H](CC(C)C)C(=O)N[C@@H](CCC(=O)O)C(=O)N[C@@H](CC(C)C)C(=O)N[C@@H](C)C(=O)N[C@@H](CCCNC(=N)N)C(=O)N[C@H](C(=O)N[C@@H](CCC(N)=O)C(=O)N[C@@H](CO)C(=O)N[C@@H](CCC(N)=O)C(=O)N[C@@H](CCCNC(=N)N)C(=O)N[C@@H](CCC(=O)O)C(=O)N[C@@H](CCCNC(=N)N)C(=O)N[C@@H](C)C(=O)N[C@@H](CCC(=O)O)C(=O)N[C@@H](CCC(N)=O)C(=O)N[C@@H](CC(N)=O)C(=O)N[C@@H](CCCNC(=N)N)C(=O)N[C@H](C(=O)N[C@H](C(=O)N[C@@H](Cc1ccccc1)C(=O)N[C@@H](CC(=O)O)C(=O)N[C@@H](CO)C(=O)N[C@H](C(N)=O)C(C)C)[C@@H](C)CC)[C@@H](C)CC)[C@@H](C)O)[C@@H](C)O)[C@@H](C)O [hUcnI, human urocortin I, reference compound] (H-DNPSLSIDLTFHLLRTLLELARTQSQRERAEQNRIIFDSV-NH2)	–	–	9 nM	3.52 nM
SQEIVLSLDVPIGLLREVLEMTKADQLAQQAHSNRKLLDIA-NH2 [compound 152]	4%	19%	–	–
